# Test results taken from the supplement of paper PMC4862054.
# System: SK-BR-3
# Assay: normalised response (% of control), CellTiter-Glo; higher = more viable cells (100 = DMSO, 0 = benzethonium chloride kill control)
# Details: incubation time: 72 h
# Protocol: (§1)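 DSRT, 72 h incubation, CellTox Green / CellTiter-Glo readout. Signal is normalised to DMSO and benzethonium chloride controls. Value is the normalised response at dose 3.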
row,Structure (SMILES),normalised response
1,N#Cc1ccc(C(c2ccc(C#N)cc2)n2cncn2)cc1 [Letrozole] (100 nM),102%
2,CCCS(=O)(=O)Nc1ccc(F)c(C(=O)c2c[nH]c3ncc(-c4ccc(Cl)cc4)cc23)c1F [Vemurafenib] (100 nM),84.8%
3,CC[C@H](Nc1ncnc2[nH]cnc12)c1nc2cccc(F)c2c(=O)n1-c1ccccc1 [GS-1101] (100 nM),85.2%
4,CC(=O)Nc1cccc(-n2c(=O)n(C3CC3)c(=O)c3c(Nc4ccc(I)cc4F)n(C)c(=O)c(C)c32)c1 [Trametinib] (2.5 nM),98.4%
5,Nc1ccccc1NC(=O)c1ccc(CNC(=O)OCc2cccnc2)cc1 [Entinostat] (100 nM),107%

# System: Hs578T
# Assay: as above
# Details: incubation time: 72 h
# Protocol: as §1
row,Structure (SMILES),normalised response
1,O=C(O)CCCCC(CCSCc1ccccc1)SCc1ccccc1 (stereo unspecified) [CPI-613] (100 nM),99.6%
2,Nc1nc2[nH]cc(CCc3ccc(C(=O)N[C@@H](CCC(=O)O)C(=O)O)cc3)c2c(=O)[nH]1 [Pemetrexed] (100 nM),28.8%
3,Cc1cnc(NC(=O)Nc2cc(Br)c(C)cc2OC[C@@H]2CNCCO2)cn1 [Rabusertib] (10 nM),107%
4,CCCCC(=O)OCC(=O)[C@]1(O)Cc2c(O)c3c(c(O)c2[C@@H](O[C@H]2C[C@H](NC(=O)C(F)(F)F)[C@H](O)[C@H](C)O2)C1)C(=O)c1c(OC)cccc1C3=O [Valrubicin] (50 nM),101%
5,N#Cc1ccc(C(c2ccc(C#N)cc2)n2cncn2)cc1 [Letrozole] (100 nM),105%
6,CCCS(=O)(=O)Nc1ccc(F)c(C(=O)c2c[nH]c3ncc(-c4ccc(Cl)cc4)cc23)c1F [Vemurafenib] (100 nM),95.9%
7,CC[C@H](Nc1ncnc2[nH]cnc12)c1nc2cccc(F)c2c(=O)n1-c1ccccc1 [GS-1101] (100 nM),96.8%
8,CC(=O)Nc1cccc(-n2c(=O)n(C3CC3)c(=O)c3c(Nc4ccc(I)cc4F)n(C)c(=O)c(C)c32)c1 [Trametinib] (2.5 nM),90.8%
9,Nc1ccccc1NC(=O)c1ccc(CNC(=O)OCc2cccnc2)cc1 [Entinostat] (100 nM),102%

# System: HDQ-P1
# Assay: as above
# Details: incubation time: 72 h
# Protocol: as §1
row,Structure (SMILES),normalised response
1,O=C(O)CCCCC(CCSCc1ccccc1)SCc1ccccc1 (stereo unspecified) [CPI-613] (100 nM),99%
2,Nc1nc2[nH]cc(CCc3ccc(C(=O)N[C@@H](CCC(=O)O)C(=O)O)cc3)c2c(=O)[nH]1 [Pemetrexed] (100 nM),92.3%
3,Cc1cnc(NC(=O)Nc2cc(Br)c(C)cc2OC[C@@H]2CNCCO2)cn1 [Rabusertib] (10 nM),96.3%
4,CCCCC(=O)OCC(=O)[C@]1(O)Cc2c(O)c3c(c(O)c2[C@@H](O[C@H]2C[C@H](NC(=O)C(F)(F)F)[C@H](O)[C@H](C)O2)C1)C(=O)c1c(OC)cccc1C3=O [Valrubicin] (50 nM),102%
5,N#Cc1ccc(C(c2ccc(C#N)cc2)n2cncn2)cc1 [Letrozole] (100 nM),96.7%
6,CCCS(=O)(=O)Nc1ccc(F)c(C(=O)c2c[nH]c3ncc(-c4ccc(Cl)cc4)cc23)c1F [Vemurafenib] (100 nM),94.3%
7,CC[C@H](Nc1ncnc2[nH]cnc12)c1nc2cccc(F)c2c(=O)n1-c1ccccc1 [GS-1101] (100 nM),93.1%
8,CC(=O)Nc1cccc(-n2c(=O)n(C3CC3)c(=O)c3c(Nc4ccc(I)cc4F)n(C)c(=O)c(C)c32)c1 [Trametinib] (2.5 nM),70.1%
9,Nc1ccccc1NC(=O)c1ccc(CNC(=O)OCc2cccnc2)cc1 [Entinostat] (100 nM),104%

# System: BT-549
# Assay: as above
# Details: incubation time: 72 h
# Protocol: as §1
row,Structure (SMILES),normalised response
1,O=C(O)CCCCC(CCSCc1ccccc1)SCc1ccccc1 (stereo unspecified) [CPI-613] (100 nM),105%
2,Nc1nc2[nH]cc(CCc3ccc(C(=O)N[C@@H](CCC(=O)O)C(=O)O)cc3)c2c(=O)[nH]1 [Pemetrexed] (100 nM),104%
3,Cc1cnc(NC(=O)Nc2cc(Br)c(C)cc2OC[C@@H]2CNCCO2)cn1 [Rabusertib] (10 nM),98.4%
4,CCCCC(=O)OCC(=O)[C@]1(O)Cc2c(O)c3c(c(O)c2[C@@H](O[C@H]2C[C@H](NC(=O)C(F)(F)F)[C@H](O)[C@H](C)O2)C1)C(=O)c1c(OC)cccc1C3=O [Valrubicin] (50 nM),86.2%
5,N#Cc1ccc(C(c2ccc(C#N)cc2)n2cncn2)cc1 [Letrozole] (100 nM),104%
6,CCCS(=O)(=O)Nc1ccc(F)c(C(=O)c2c[nH]c3ncc(-c4ccc(Cl)cc4)cc23)c1F [Vemurafenib] (100 nM),97.9%
7,CC[C@H](Nc1ncnc2[nH]cnc12)c1nc2cccc(F)c2c(=O)n1-c1ccccc1 [GS-1101] (100 nM),95.1%
8,CC(=O)Nc1cccc(-n2c(=O)n(C3CC3)c(=O)c3c(Nc4ccc(I)cc4F)n(C)c(=O)c(C)c32)c1 [Trametinib] (2.5 nM),100%
9,Nc1ccccc1NC(=O)c1ccc(CNC(=O)OCc2cccnc2)cc1 [Entinostat] (100 nM),115%

# System: HCC1937
# Assay: as above
# Details: incubation time: 72 h
# Protocol: as §1
row,Structure (SMILES),normalised response
1,O=C(O)CCCCC(CCSCc1ccccc1)SCc1ccccc1 (stereo unspecified) [CPI-613] (100 nM),101%
2,Nc1nc2[nH]cc(CCc3ccc(C(=O)N[C@@H](CCC(=O)O)C(=O)O)cc3)c2c(=O)[nH]1 [Pemetrexed] (100 nM),75.7%
3,Cc1cnc(NC(=O)Nc2cc(Br)c(C)cc2OC[C@@H]2CNCCO2)cn1 [Rabusertib] (10 nM),99.7%
4,CCCCC(=O)OCC(=O)[C@]1(O)Cc2c(O)c3c(c(O)c2[C@@H](O[C@H]2C[C@H](NC(=O)C(F)(F)F)[C@H](O)[C@H](C)O2)C1)C(=O)c1c(OC)cccc1C3=O [Valrubicin] (50 nM),97.9%
5,N#Cc1ccc(C(c2ccc(C#N)cc2)n2cncn2)cc1 [Letrozole] (100 nM),94.2%
6,CCCS(=O)(=O)Nc1ccc(F)c(C(=O)c2c[nH]c3ncc(-c4ccc(Cl)cc4)cc23)c1F [Vemurafenib] (100 nM),97.7%
7,CC[C@H](Nc1ncnc2[nH]cnc12)c1nc2cccc(F)c2c(=O)n1-c1ccccc1 [GS-1101] (100 nM),90.8%
8,CC(=O)Nc1cccc(-n2c(=O)n(C3CC3)c(=O)c3c(Nc4ccc(I)cc4F)n(C)c(=O)c(C)c32)c1 [Trametinib] (2.5 nM),86.8%
9,Nc1ccccc1NC(=O)c1ccc(CNC(=O)OCc2cccnc2)cc1 [Entinostat] (100 nM),94%
